Results reported in patent US20260062422A1 (Halda Therapeutics OpCo, Inc., priority 2022, published 2026).

What was measured:
[1] = system: T-Rex 293 cell line SC3 cells having increased expression of androgen receptor protein due to exposure to doxycycline; assay: Cellular growth inhibition, T-Rex 293 SC3 cells with doxycycline (androgen receptor induced), CellTiter-Glo; assay type: cell-based; settings: T-Rex 293 SC3 cells with 10 ng/mL doxycycline (increased androgen receptor expression)
How it was run: (§1)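 With DMSO (0.5%) vehicle as negative control, compounds treated SC3 cells for 72 h in medium containing charcoal-dextran FBS ± doxycycline. This T-Rex 293 clone expresses transfected wild-type AR on induction. Readout: CellTiter-Glo 2.0; GI50 by nonlinear regression.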

T47D cells = assay: Cellular growth inhibition assay for T47D cells, CellTiter-Glo; assay type: cell-based, human; settings: 72 hours treatment, CellTiter-Glo 2.0 cell viability
How it was run: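 Growth inhibition as GI50, fitted with four parameters to CellTiter-Glo luminescence after 72 h of compound exposure (0.5% DMSO). Cells were T47D, grown in insulin-supplemented (0.2 units/mL) DMEM with 10% FBS and treated one day post-seeding.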

[2] = system: T-Rex 293 cell line SC3 cells lacking increased expression of androgen receptor protein; assay: Cellular growth inhibition, T-Rex 293 SC3 cells without doxycycline, CellTiter-Glo; assay type: cell-based; settings: T-Rex 293 SC3 cells not exposed to doxycycline, CellTiter-Glo 2.0
How it was run: as §1

VCaP cells = assay: Cellular growth inhibition assay for VCaP cells, CellTiter-Glo; assay type: cell-based, human; settings: 72 hours treatment, CellTiter-Glo 2.0
How it was run: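 GI50 values come from four-parameter curve fits of luminescence data normalized to a zero baseline. Compound, in medium with 0.5% DMSO, was added one day after plating and left for 72 h before CellTiter-Glo 2.0 addition.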

Row | GI50 (T47D cells; Homo sapiens, T47D, 72 h) [nM] | GI50 (VCaP cells; Homo sapiens, VCaP, 72 h) [nM] | GI50 (VCaP cells) [nM] | GI50 (T47D cells) [nM] | Structure (SMILES) | GI50 ([1]; 72 h) [nM] | GI50 ([2]; 72 h) [nM] | GI50 ([2]; 72 hours) [nM] | GI50 ([1]; 72 hours) [nM]
1 | > 3000 | > 3000 | – | – | Cc1sc2c(c1C)C(c1ccc(C(C)(C)N3CC4(CCCN(c5ncc(C(=O)N[C@H]6C(C)(C)[C@H](Oc7ccc(C#N)c(Cl)c7)C6(C)C)cn5)C4)C3)cc1)=N[C@@H](Cc1ncco1)c1nnc(C)n1-2 [Compound I-439] | < 500 | > 3000 | – | –
2 | < 500 | < 500 | – | – | Cc1sc2c(c1C)C(c1ccc(-n3ccc(C4CCN(c5ncc(C(=O)N[C@H]6C(C)(C)[C@H](Oc7ccc(C#N)c(Cl)c7)C6(C)C)cn5)CC4)n3)cc1)=N[C@@H](Cc1ncco1)c1nnc(C)n1-2 [Compound I-441] | < 500 | 500 to 1500 | – | –
3 | < 500 | < 500 | – | – | Cc1sc2c(c1C)C(c1ccc(-c3ncc(C4CCN(c5ncc(C(=O)N[C@H]6C(C)(C)[C@H](Oc7ccc(C#N)c(Cl)c7)C6(C)C)cn5)CC4)o3)cc1)=N[C@@H](Cc1ncco1)c1nnc(C)n1-2 [Compound I-442] | < 500 | > 3000 | – | –
4 | > 3000 | < 500 | – | – | Cc1sc2c(c1C)C(c1ccc(-c3cc(OC4CCN(c5ncc(C(=O)N[C@H]6C(C)(C)[C@H](Oc7ccc(C#N)c(Cl)c7)C6(C)C)cn5)CC4)cs3)cc1)=N[C@@H](Cc1ncco1)c1nnc(C)n1-2 [Compound I-443] | < 500 | > 3000 | – | –
5 | > 3000 | < 500 | – | – | Cc1sc2c(c1C)C(c1ccc(-c3ccsc3OC3CCN(c4ncc(C(=O)N[C@H]5C(C)(C)[C@H](Oc6ccc(C#N)c(Cl)c6)C5(C)C)cn4)CC3)cc1)=N[C@@H](Cc1ncco1)c1nnc(C)n1-2 [Compound I-444] | < 500 | > 3000 | – | –
6 | < 500 | – | < 500 | – | Cc1sc2c(c1C)C(c1ccc(CC3CC(OC4CCN(c5ncc(C(=O)N[C@H]6C(C)(C)[C@H](Oc7ccc(C#N)c(Cl)c7)C6(C)C)cn5)CC4)C3)cc1)=N[C@@H](C)c1nnc(C)n1-2 (some centres unmarked) [Compound I-445] | < 500 | > 3000 | – | –
7 | < 500 | 500 to 1500 | – | – | Cc1sc2c(c1C)C(c1ccc(CC3CC4(CCN(c5ccc(C(=O)N[C@H]6C(C)(C)[C@H](Oc7ccc(C#N)c(Cl)c7)C6(C)C)nc5)CC4)C3)cc1)=N[C@@H](C)c1nnc(C)n1-2 [Compound I-447] | < 500 | > 3000 | – | –
8 | < 500 | > 3000 | – | – | Cc1sc2c(c1C)C(c1ccc(CC3CC4(CCN(c5cnc(C(=O)N[C@H]6C(C)(C)[C@H](Oc7ccc(C#N)c(Cl)c7)C6(C)C)cn5)CC4)C3)cc1)=N[C@@H](C)c1nnc(C)n1-2 [Compound I-448] | < 500 | > 3000 | – | –
9 | 500 to 1500 | > 3000 | – | – | Cc1sc2c(c1C)C(c1ccc(N3CC(CC4CCN(c5ccc(C(=O)N[C@H]6C(C)(C)[C@H](Oc7ccc(C#N)c(Cl)c7)C6(C)C)nc5)CC4)C3)cc1)=N[C@@H](C)c1nnc(C)n1-2 [Compound I-449] | > 3000 | > 3000 | – | –
10 | < 500 | > 3000 | – | – | Cc1sc2c(c1C)C(c1ccc(N3CC(CC4CCN(c5cnc(C(=O)N[C@H]6C(C)(C)[C@H](Oc7ccc(C#N)c(Cl)c7)C6(C)C)cn5)CC4)C3)cc1)=N[C@@H](C)c1nnc(C)n1-2 [Compound I-450] | 500 to 1500 | > 3000 | – | –
11 | 500 to 1500 | < 500 | – | – | Cc1sc2c(c1C)C(c1ccc(N3CCC[C@@H](OCCc4ncc(C(=O)N[C@H]5C(C)(C)[C@H](Oc6ccc(C#N)c(Cl)c6)C5(C)C)cn4)C3)cc1)=N[C@@H](Cc1ncco1)c1nnc(C)n1-2 [Compound I-451] | < 500 | 500 to 1500 | – | –
12 | < 500 | < 500 | – | – | Cc1sc2c(c1C)C(c1ccc(-c3ncc(C4CCN(c5ncc(C(=O)N[C@H]6C(C)(C)[C@H](Oc7ccc(C#N)c(Cl)c7)C6(C)C)cn5)CC4)s3)cc1)=N[C@@H](Cc1ncco1)c1nnc(C)n1-2 [Compound I-452] | < 500 | < 500 | – | –
13 | < 500 | < 500 | – | – | Cc1sc2c(c1C)C(c1ccc(-c3cc(C4CCN(c5ncc(C(=O)N[C@H]6C(C)(C)[C@H](Oc7ccc(C#N)c(Cl)c7)C6(C)C)cn5)CC4)on3)cc1)=N[C@@H](Cc1ncco1)c1nnc(C)n1-2 [Compound I-453] | < 500 | > 3000 | – | –
14 | 500 to 1500 | < 500 | – | – | Cc1sc2c(c1C)C(c1ccc(-c3noc(C4CCN(c5ncc(C(=O)N[C@H]6C(C)(C)[C@H](Oc7ccc(C#N)c(Cl)c7)C6(C)C)cn5)CC4)n3)cc1)=N[C@@H](Cc1ncco1)c1nnc(C)n1-2 [Compound I-454] | < 500 | < 500 | – | –
15 | > 3000 | < 500 | – | – | Cc1sc2c(c1C)C(c1ccc(-n3nccc3C3CCN(c4ncc(C(=O)N[C@H]5C(C)(C)[C@H](Oc6ccc(C#N)c(Cl)c6)C5(C)C)cn4)CC3)cc1)=N[C@@H](Cc1ncco1)c1nnc(C)n1-2 [Compound I-455] | < 500 | > 3000 | – | –
16 | > 3000 | 1500 to 3000 | – | – | Cc1sc2c(c1C)C(c1ccc(OC3CC4(CCN(c5ncc(C(=O)N[C@H]6C(C)(C)[C@H](Oc7ccc(C#N)c(Cl)c7)C6(C)C)cn5)CC4)C3)c(F)c1)=N[C@@H](Cc1ncco1)c1nnc(C)n1-2 [Compound I-456] | < 500 | > 3000 | – | –
17 | < 500 | < 500 | – | – | Cc1sc2c(c1C)C(c1ccc(OC3CC4(CCN(c5ncc(C(=O)N[C@H]6C(C)(C)[C@H](Oc7ccc(C#N)c(Cl)c7)C6(C)C)cn5)CC4)C3)cc1F)=N[C@@H](Cc1ncco1)c1nnc(C)n1-2 [Compound I-457, N-[3-(3-chloro-4-cyano-phenoxy)-2,2,4,4-tetramethyl-cyclobutyl]-2-[2-[3-fluoro-4-[(9S)-4,5,13-trimethyl-9-(oxazol-2-ylmethyl)-3-thia-1,8,11,12-tetrazatricyclo[8.3.0.02,6]trideca-2(6),4,7,10,12-pentaen-7-yl]phenoxy]-7-azaspiro [3.5]nonan-7-yl]pyrimidine-5-carboxamide] | < 500 | < 500 | – | –
18 | < 500 | < 500 | – | – | Cc1sc2c(c1C)C(c1ccc(N3CC4(CCC(Cc5ncc(C(=O)N[C@H]6C(C)(C)[C@H](Oc7ccc(C#N)c(Cl)c7)C6(C)C)cn5)CC4)C3)cc1)=N[C@@H](Cc1ncco1)c1nnc(C)n1-2 [Compound I-458] | < 500 | < 500 | – | –
19 | – | – | > 3000 | 1500 to 3000 | Cc1sc2c(c1C)C(c1ccc(N3CCC4(CC3)CC(Cc3ncc(C(=O)N[C@H]5C(C)(C)[C@H](Oc6ccc(C#N)c(Cl)c6)C5(C)C)cn3)C4)cc1)=NC(Cc1ncco1)c1nnc(C)n1-2 (some centres unmarked) [Compound I-459] | < 500 | – | > 3000 | –
20 | – | – | < 500 | < 500 | Cc1sc2c(c1C)C(c1ccc(N3CCC4(CC3)CC(Cc3ncc(C(=O)N[C@H]5C(C)(C)[C@H](Oc6ccc(C#N)c(Cl)c6)C5(C)C)cn3)C4)cc1)=NC(Cc1ncco1)c1nnc(C)n1-2 (some centres unmarked) [Compound I-460] | – | – | 500 to 1500 | < 500
21 | < 500 | < 500 | – | – | Cc1sc2c(c1C)C(c1ccc(OC3CC4(CCN(c5ncc(C(=O)N[C@H]6C(C)(C)[C@H](Oc7ccc(C#N)c(Cl)c7)C6(C)C)cn5)CC4)C3)cc1)=NC1(CC1)c1nnc(C)n1-2 [Compound I-461] | < 500 | 500 to 1500 | – | –
22 | 500 to 1500 | < 500 | – | – | Cc1sc2c(c1C)C(c1ccc(C#CC3CC4(C3)CN(c3ncc(C(=O)N[C@H]5C(C)(C)[C@H](Oc6ccc(C#N)c(Cl)c6)C5(C)C)cn3)C4)cc1)=NC1(CC1)c1nnc(C)n1-2 [Compound I-462] | < 500 | 500 to 1500 | – | –
23 | > 3000 | < 500 | – | – | Cc1sc2c(c1C)C(c1ccc(C(C)(C)N3CC4(CCCN(c5ncc(C(=O)N[C@H]6C(C)(C)[C@H](Oc7ccc(C#N)c(Cl)c7)C6(C)C)cn5)C4)C3)cc1)=N[C@@H](C)c1nnc(C)n1-2 [Compound I-464] | < 500 | > 3000 | – | –
24 | < 500 | – | < 500 | – | Cc1sc2c(c1C)C(c1ccc(C3CC(C4CCN(c5ncc(C(=O)N[C@H]6C(C)(C)[C@H](Oc7ccc(C#N)c(Cl)c7)C6(C)C)cn5)CC4)C3)cc1)=NC(C)c1nnc(C)n1-2 (some centres unmarked) [Compound I-465] | < 500 | > 3000 | – | –
25 | – | – | > 3000 | < 500 | Cc1sc2c(c1C)C(c1ccc(C3CC(C4CCN(c5ncc(C(=O)N[C@H]6C(C)(C)[C@H](Oc7ccc(C#N)c(Cl)c7)C6(C)C)cn5)CC4)C3)cc1)=NC(C)c1nnc(C)n1-2 (some centres unmarked) [Compound I-466] | – | – | > 3000 | < 500
26 | – | – | < 500 | < 500 | Cc1sc2c(c1C)C(c1ccc(C3CC(C4CCN(c5ncc(C(=O)N[C@H]6C(C)(C)[C@H](Oc7ccc(C#N)c(Cl)c7)C6(C)C)cn5)CC4)C3)cc1)=NC(C)c1nnc(C)n1-2 (some centres unmarked) [Compound I-467] | – | – | > 3000 | < 500
